# Reference: US4788301A, “Novel allylic amines” (Merrell Dow Pharmaceuticals Inc., priority 1987, dated 1988)
# “Also recorded” adds a separate entry of the source.
# Tests used:
# [1] = molecular target: T1, dopamine β-hydroxylase (DBH) (Bos taurus, UniProt P15101); test: Dopamine β-hydroxylase (DBH) inhibitory activity in vitro, time-dependent inactivation (Table I); type: biochemical; conditions: for Ki: inhibition constant for inactivation of DBH; for Ki / kinact: tyramine substrate, pH 5, Kitz and Wilson; for kinact: rate of inactivation of DBH
# T1 sequence (P15101 1-610): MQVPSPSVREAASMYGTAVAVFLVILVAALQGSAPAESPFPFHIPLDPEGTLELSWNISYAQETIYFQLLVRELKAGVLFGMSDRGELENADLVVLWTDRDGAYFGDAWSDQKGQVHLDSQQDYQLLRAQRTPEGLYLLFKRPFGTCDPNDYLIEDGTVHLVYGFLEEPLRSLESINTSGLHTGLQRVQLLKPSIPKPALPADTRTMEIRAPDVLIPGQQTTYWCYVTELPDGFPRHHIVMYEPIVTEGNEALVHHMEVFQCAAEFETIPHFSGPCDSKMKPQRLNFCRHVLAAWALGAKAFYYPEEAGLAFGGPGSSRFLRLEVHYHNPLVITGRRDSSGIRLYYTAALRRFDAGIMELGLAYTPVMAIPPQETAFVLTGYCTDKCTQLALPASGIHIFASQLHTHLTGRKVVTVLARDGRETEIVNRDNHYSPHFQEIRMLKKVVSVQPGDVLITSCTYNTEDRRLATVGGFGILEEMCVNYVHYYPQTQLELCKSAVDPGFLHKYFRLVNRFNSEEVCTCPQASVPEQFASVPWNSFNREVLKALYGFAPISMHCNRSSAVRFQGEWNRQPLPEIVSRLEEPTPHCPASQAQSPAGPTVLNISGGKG
# Experimental: The dopamine β-hydroxylase inhibitory properties of the compounds of this invention can readily be determined by standard and well known procedures such as those procedures set forth in U.S. Pat. […] For example, determination of whether the DBH inhibition allows time-dependent kinetics is exemplified by the procedure wherein enzymatic oxygenation by DBH is determined in aqueous solution in the presence of molecular oxygen, an electron donor such as ascorbate, and the necessary cofactors for the enzyme at a pH of 5 and a temperature of 20°-40° C., preferably 37° C. The test compound is added at the desired concentration, and the system is incubated. At different time intervals, aliquots are taken and DBH activity is measured using tyramine as the substrate and the reaction followed by measuring the oxygen uptake using a polarographic electrode and an oxygen monitor by the method of S. May et al., J. Biol. Chem. 256, 2258 (1981). The inhibition constants for the inactivation of DBH by each compound are then determined by conventional procedures such as the method of Kitz and Wilson, J. Biol. Chem. 237, 3245 (1962). When the compounds shown in Table I were tested according to the above described procedure, the DBH inhibitory activity increased as a function of the time of incubation. The initial rate of decrease of activity increased with increasing concentration of inhibitor.
# [2] = tested on: hypertensive rats; test: Antihypertensive activity in vivo in hypertensive rats (Table II); parameters: species or system rat
# Experimental: The ability of the compounds of this invention to lower blood pressure can be determined in vivo using hypertensive rats according to standard and well known procedures. The test compound is administered intraperitoneally (ip) or orally (po) to rats and the blood pressure monitored continuously. Since DBH is a major enzyme in the synthetic pathway of the catecholamines, it would be expected that the presence of an inhibitor would act to decrease the amount of catecholamines produced, and thereby have an antihypertensive effect.
# [3] = tested on: purified DBH; test: Time-dependant inhibition of purified DBH (Table III); type: biochemical
# Experimental: The dopamine β-hydroxylase inhibitory properties of the compounds of this invention can readily be determined by standard and well known procedures such as those procedures set forth in U.S. Pat. No. 4,415,191. For example, determination of whether the DBH inhibition allows time-dependent kinetics is exemplified by the procedure wherein enzymatic oxygenation by DBH is determined in aqueous solution in the presence of molecular oxygen, an electron donor such as ascorbate, and the necessary cofactors for the enzyme at a pH of 5 and a temperature of 20°-40° C., preferably 37° C. The test compound is added at the desired concentration, and the system is incubated. At different time intervals, aliquots are taken and DBH activity is measured using tyramine as the substrate and the reaction followed by measuring the oxygen uptake using a polarographic electrode and an oxygen monitor by the method of S. May et al., J. Biol. Chem. 256, 2258 (1981). The inhibition constants for the inactivation of DBH by each compound are then determined by conventional procedures such as the method of Kitz and Wilson, J. Biol. Chem. 237, 3245 (1962). When the compounds shown in Table I were tested according to the above described procedure, the DBH inhibitory activity increased as a function of the time of incubation. […]
# [4] = tested on: Rat Brain - Mitochondrial MAO; test: Time-dependant inhibition of rat brain mitochondrial MAO (Table III); type: biochemical
# Experimental: (§1) The compounds of this invention were conceived as mechanism-based inhibitors of DBH similar to that reported by S. May, J. Biol. Chem. 256, 2258 (1981). These compounds bear some resemblance to the catecholamines which are destroyed by the enzyme monoamine oxidase (MAO) in order to terminate neurotransmission. Because of their structural similarity to the catecholamines they may act as MAO substrates and, as such, act as k cat inhibitors of MAO. These compounds were evaluated as mechanism-based inhibitors of monooxygenasess by the method of A. Christmas et. al., Br. J. Pharmacol. 45, 490 (1972).
# [5] = molecular target: T2, MAO A (Rattus norvegicus, UniProt P21396); test: Inhibition of rat brain mitochondrial MAO A (Table III); type: biochemical
# T2 construct: from tissue; host or cells: rat brain mitochondria
# T2 sequence (P21396 1-526): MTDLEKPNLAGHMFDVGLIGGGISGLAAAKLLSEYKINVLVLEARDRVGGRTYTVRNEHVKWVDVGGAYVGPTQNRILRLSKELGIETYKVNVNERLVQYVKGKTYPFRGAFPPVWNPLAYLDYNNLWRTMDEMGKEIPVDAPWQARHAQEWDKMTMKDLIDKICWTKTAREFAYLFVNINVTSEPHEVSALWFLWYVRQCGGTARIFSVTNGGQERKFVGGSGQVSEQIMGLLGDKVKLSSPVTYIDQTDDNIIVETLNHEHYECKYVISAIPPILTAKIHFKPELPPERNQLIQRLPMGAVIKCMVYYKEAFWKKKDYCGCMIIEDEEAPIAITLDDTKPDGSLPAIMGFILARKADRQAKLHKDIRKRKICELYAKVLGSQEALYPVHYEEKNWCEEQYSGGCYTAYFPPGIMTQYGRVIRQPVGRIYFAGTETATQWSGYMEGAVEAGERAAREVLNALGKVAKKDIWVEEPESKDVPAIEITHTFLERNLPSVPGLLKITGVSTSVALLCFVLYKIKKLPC
# Experimental: as §1
# [6] = molecular target: T3, MAO B (Rattus norvegicus, UniProt P19643); test: Inhibition of rat brain mitochondrial MAO B (Table III); type: biochemical
# T3 construct: from tissue; host or cells: rat brain mitochondria
# T3 sequence (P19643 1-520): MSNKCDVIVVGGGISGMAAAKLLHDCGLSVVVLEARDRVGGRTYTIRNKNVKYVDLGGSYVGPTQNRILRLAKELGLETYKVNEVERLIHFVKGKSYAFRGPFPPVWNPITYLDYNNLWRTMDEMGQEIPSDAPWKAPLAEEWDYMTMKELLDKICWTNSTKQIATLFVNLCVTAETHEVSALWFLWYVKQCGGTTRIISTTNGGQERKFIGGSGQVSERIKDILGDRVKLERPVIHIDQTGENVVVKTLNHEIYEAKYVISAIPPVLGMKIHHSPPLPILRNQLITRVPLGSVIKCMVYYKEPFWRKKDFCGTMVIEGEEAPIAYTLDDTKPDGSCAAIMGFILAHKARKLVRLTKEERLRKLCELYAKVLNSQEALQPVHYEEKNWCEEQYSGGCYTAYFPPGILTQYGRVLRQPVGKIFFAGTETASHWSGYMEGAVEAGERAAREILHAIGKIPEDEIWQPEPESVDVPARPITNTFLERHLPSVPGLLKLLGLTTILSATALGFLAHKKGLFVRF
# Experimental: as §1
Ki [1],kinact [1],"Relative DBH inhibitory potency of the isomers ([1]; 2- vs. 3-thiophene isomer, Table I)",Ki [5],MAO A Tau50 [5],Ki [6],MAO B Tau50 [6],SMILES,Maximum % Change Mean Blood Pressure ([2]; 10 mg/kg ip),Maximum % Change Mean Blood Pressure ([2]; 30 mg/kg ip),Maximum % Change Mean Blood Pressure ([2]; 50 mg/kg po),Maximum % Change Mean Blood Pressure ([2]; 100 mg/kg ip),Maximum % Change Mean Blood Pressure ([2]; 100 mg/kg po),Maximum % Change Mean Blood Pressure ([2]; 200 mg/kg po),"Time-dependant inhibition t1/2 ([3]; 5.10^-5 M final concentration, purified DBH)",DBH inhibitory activity (in words) ([3]; compared with MAO inhibition),MAO inhibition (in words) [4]
2000 µM,6.67e-05 s⁻¹,–,–,–,–,–,"C=C(CN)c1ccsc1 [β-Methylene-3-Thiopheneethanamine, β-methylene-3-thiopheneethanamine]",–,–,–,–,–,–,–,–,–
2000 µM,0.000333 s⁻¹,the more potent isomer,320 µM,2.6 min,110 µM,4.9 min,"C=C(CN)c1cccs1 [β-Methylene-2-Thiopheneethanamine, β-methylene-2-thiopheneethanamine]",11%,22%,11%,52%,14%,14%,7 min,potent DBH inhibitory activity,weak MAO inhibitory activity; also recorded: Weak time-dependant MAO inhibitor
